Test results: US9108937B2 (Merck Sharp & Dohme Corp., priority 2010, dated 2015)
pEC50: −log10 of the molar value.

Molecular target: T1, human mGluR2 (Homo sapiens, UniProt Q14416)
T1 construct: expressed in transfected cells
Experiment: FLIPR Ca2+ mobilization assay, potentiation of glutamate response
Format: cell-based
Details: CHO dhfr- cells expressing human mGluR2 and Gα16; potentiation after EC20 glutamate (900 nM); read-out: Representative FLIPR EC50 Values: IC50
Protocol: Inhibition constants are determined as follows. The compounds of the present invention may be tested in a fluorescence laser imaging plate reader (FLIPR) based assay. This assay is a common functional assay to monitor Ca^2+ mobilization in whole cells expressing recombinant receptor coupled with a promiscuous G-protein. CHO dhfr− cells stably expressing recombinant human mGluR2 and Gα16 loaded with Fluo-4 AM (Invitrogen, Carlsbad Calif.) are treated with dose responses of compounds and the Ca^2+ response is monitored on a FLIPR384 (Molecular Devices, Sunnydale Calif.) for agonist activity. The potentiation response is monitored after a subsequent addition of an EC20 concentration of glutamate (900 nM). The maximum calcium response at each concentration of compound for agonist or potentiation are plotted as dose responses and the curves are fitted with a four parameters logistic equation giving EC50 and Hill coefficient using the iterative non linear curve fitting software program.

T1 sequence (Q14416 19-872): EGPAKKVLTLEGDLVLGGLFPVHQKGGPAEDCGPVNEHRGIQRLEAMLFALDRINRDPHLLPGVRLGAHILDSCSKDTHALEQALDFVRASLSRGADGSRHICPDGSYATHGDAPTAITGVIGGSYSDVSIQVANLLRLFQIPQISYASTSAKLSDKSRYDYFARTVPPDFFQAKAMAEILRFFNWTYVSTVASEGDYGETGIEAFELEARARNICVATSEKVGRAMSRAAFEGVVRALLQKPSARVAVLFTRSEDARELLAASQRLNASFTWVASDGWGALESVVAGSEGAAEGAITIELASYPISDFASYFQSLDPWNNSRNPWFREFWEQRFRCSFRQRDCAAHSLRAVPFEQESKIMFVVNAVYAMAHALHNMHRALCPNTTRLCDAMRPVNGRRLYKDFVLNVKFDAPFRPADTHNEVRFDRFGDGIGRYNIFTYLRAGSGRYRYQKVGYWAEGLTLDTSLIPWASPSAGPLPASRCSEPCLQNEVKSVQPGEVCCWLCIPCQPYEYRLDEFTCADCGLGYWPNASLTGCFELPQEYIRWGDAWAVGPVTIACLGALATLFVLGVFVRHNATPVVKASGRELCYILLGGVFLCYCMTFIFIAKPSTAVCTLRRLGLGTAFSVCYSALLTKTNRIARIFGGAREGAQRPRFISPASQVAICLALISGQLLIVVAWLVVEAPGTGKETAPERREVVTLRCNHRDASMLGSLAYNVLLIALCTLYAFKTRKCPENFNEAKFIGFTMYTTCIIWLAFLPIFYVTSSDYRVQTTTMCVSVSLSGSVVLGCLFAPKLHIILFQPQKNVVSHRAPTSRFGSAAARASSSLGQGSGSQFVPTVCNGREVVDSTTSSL

Compound | pEC50
CN1c2cc(-c3cccc(CN4CCN(S(C)(=O)=O)CC4)n3)ccc2N(CC2CC2(F)F)S1(=O)=O (stereo not drawn) [Compound 25-2] | 7.62
Cc1ccc(CN2CCN(C(=O)[C@@H](C)O)CC2)cc1-c1ccc2c(n1)N(C)S(=O)(=O)N2CC1CC1(F)F (stereo partly drawn) [Compound 43-3, (2R)-1-[4-(3-{1-[(2,2-difluorocyclopropyl)methyl]-3-methyl-2,2-dioxido-1,3-dihydro[1,2,5]thiadiazolo[3,4-b]pyridin-5-yl}-4-methylbenzyl)piperazin-1-yl]-2-hydroxypropan-1-one] | 8.10
CN1c2cc(-c3cc(Oc4ccnc(C#N)c4)ccc3C#N)ccc2N(CC2CC2(F)F)S1(=O)=O (stereo not drawn) [Compound 12-4, 4-(4-cyano-3-{1-[(2,2-difluorocyclopropyl)methyl]-3-methyl-2,2-dioxido-1,3-dihydro-2,1,3-benzothiadiazol-5-yl}phenoxy) pyridine-2-carbonitrile] | 9.30
CN1c2cc(-c3ccccc3C#N)ccc2N(CC2CC2)S1(=O)=O [Compound 1-5, 2-[1-(cyclopropylmethyl)-3-methyl-2,2-dioxido-1,3-dihydro-2,1,3-benzothiadiazol-5-yl]benzonitrile] | 8.30
CN1c2nc(-c3cc(Oc4ccnc(C#N)c4)ccc3C#N)ccc2N(CC2CC2(F)F)S1(=O)=O (stereo not drawn) [Compound 36-2, 4-(4-cyano-3-{1-[(2,2-difluorocyclopropyl)methyl]-3-methyl-2,2-dioxido-1,3-dihydro[1,2,5]thiadiazolo[3,4-b]pyridin-5-yl}phenoxy)pyridine-2-carbonitrile] | 8.52
CC(=O)N1CCN(Cc2ccc(C)c(-c3ccc4c(n3)N(C)S(=O)(=O)N4CC3CC3(F)F)c2)CC1 (stereo not drawn) [Compound 39-2, 1-[4-(3-{1-[(2,2-difluorocyclopropyl)methyl]-3-methyl-2,2-dioxido-1,3-dihydro[1,2,5]thiadiazolo[3,4-b]pyridin-5-yl}-4-methylbenzyl)piperazin-1-yl]ethanone] | 7.96
CN1c2nc(-c3ccccc3C#N)ccc2N(CC(C)(C)C)S1(=O)=O [Compound 30-2, 2-[1-(2,2-dimethylpropyl)-3-methyl-2,2-dioxido-1,3-dihydro[1,2,5]thiadiazolo[3,4-b]pyridin-5-yl]benzonitrile] | 8.05
CN1c2cc(-c3cccc(CNc4ncccc4C#N)c3)ccc2N(CC2CC2)S1(=O)=O [Compound 24-1, 2-({3-[1-(cyclopropylmethyl)-3-methyl-2,2-dioxido-1,3-dihydro-2,1,3-benzothiadiazol-5-yl]benzyl}amino)nicotinonitrile] | 6.89
CN1c2cc(-c3cc(CN4CCc5onc(O)c5C4)ccc3C#N)ccc2N(CC2CC2(F)F)S1(=O)=O (stereo not drawn) [Compound 20-1, 2-{1-[(2,2-difluorocyclopropyl)methyl]-3-methyl-2,2-dioxido-1,3-dihydro-2,1,3-benzothiadiazol-5-yl}-4-[(3-hydroxy-6,7-dihydroisoxazolo[4,5-c]pyridin-5(4H)-yl)methyl]benzonitrile] | 9.10
CN1c2cc(-c3cc(C(C)(C)O)ccc3F)ccc2N(CC2CC2(F)F)S1(=O)=O (stereo not drawn) [Compound 17-2] | 7.66
CN1c2cc(-c3cccc(N4CCS(=O)(=O)CC4)c3)ccc2N(CC2CCC2)S1(=O)=O [Compound 8-1, 1-(cyclobutylmethyl)-5-[3-(1,1-dioxidothiomorpholin-4-yl)phenyl]-3-methyl-1,3-dihydro-2,1,3-benzothiadiazole 2,2-dioxide] | 6.96
Cc1cccnc1-c1ccc2c(c1)N(C)S(=O)(=O)N2CC1CC1 [Compound 3-1, 1-(cyclopropylmethyl)-3-methyl-5-(3-methylpyridin-2-yl)-1,3-dihydro-2,1,3-benzothiadiazole 2,2-dioxide] | 6.31
CN1c2nc(-c3cccc(CN4CCS(=O)(=O)CC4)c3F)ccc2N(CC2CC2(F)F)S1(=O)=O (stereo not drawn) [Compound 42-3, 1-[(2,2-difluorocyclopropyl)methyl]-5-{3-[(1,1-dioxidothiomorpholin-4-yl)methyl]-2-fluorophenyl}-3-methyl-1,3-dihydro [1,2,5]thiadiazolo[3,4-b]pyridine 2,2-dioxide] | 8.05
CN1c2nc(-c3ccc(N4CCN(S(C)(=O)=O)CC4)cc3)ccc2N(CC2CC2(F)F)S1(=O)=O (stereo not drawn) [Compound 32-2, 1-[(2,2-difluorocyclopropyl)methyl]-3-methyl-5-{4-[4-(methylsulfonyl)piperazin-1-yl]phenyl}-1,3-dihydro[1,2,5]thiadiazolo[3,4-b]pyridine 2,2-dioxide] | 6.85
Cc1ccc(C(C)(C)O)cc1-c1ccc2c(n1)N(C)S(=O)(=O)N2CC1CC1 [Compound 38-3, 2-{3-[1-(cyclopropylmethyl)-3-methyl-2,2-dioxido-1,3-dihydro [1,2,5]thiadiazolo[3,4-b]pyridin-5-yl]-4-methylphenyl}propan-2-ol] | 7.60
